IC50 data for 9 compounds are collected here from patent US11168073B2, “3,3-difluoroallylamines or salts thereof and pharmaceutical compositions comprising the same” (YUHAN CORPORATION, priority 2018, dated 2021).

Common to all, as to format: biochemical
Assay [1] concerns the target T1, recombinant human VAP-1 (Homo sapiens, UniProt Q16853).
T1 construct: purchased R&D systems
T1 sequence (Q16853 1-763): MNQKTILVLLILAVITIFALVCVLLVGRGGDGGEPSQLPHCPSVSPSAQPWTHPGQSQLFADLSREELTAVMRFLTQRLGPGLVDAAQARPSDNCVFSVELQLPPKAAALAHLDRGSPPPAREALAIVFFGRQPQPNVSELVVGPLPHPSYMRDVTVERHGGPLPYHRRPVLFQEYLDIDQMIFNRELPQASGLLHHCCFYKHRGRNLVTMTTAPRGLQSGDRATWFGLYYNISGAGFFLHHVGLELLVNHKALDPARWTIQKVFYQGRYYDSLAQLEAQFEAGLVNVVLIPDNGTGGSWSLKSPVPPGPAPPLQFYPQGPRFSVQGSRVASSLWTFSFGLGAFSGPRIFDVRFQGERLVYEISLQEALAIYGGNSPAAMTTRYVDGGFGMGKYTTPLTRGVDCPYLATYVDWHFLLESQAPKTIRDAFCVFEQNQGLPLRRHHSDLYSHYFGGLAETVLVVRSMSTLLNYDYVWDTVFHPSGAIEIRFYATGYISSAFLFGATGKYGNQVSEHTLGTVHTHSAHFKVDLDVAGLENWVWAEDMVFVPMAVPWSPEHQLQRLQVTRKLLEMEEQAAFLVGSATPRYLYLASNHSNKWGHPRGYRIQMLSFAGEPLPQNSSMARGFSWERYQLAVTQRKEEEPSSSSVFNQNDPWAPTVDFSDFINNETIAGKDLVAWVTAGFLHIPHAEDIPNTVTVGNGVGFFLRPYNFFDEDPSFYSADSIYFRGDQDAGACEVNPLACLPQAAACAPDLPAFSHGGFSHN
As to the kind of experiment: Activity evaluation on recombinant human VAP-1 (Amplex Red/HRP-coupled hydrogen peroxide assay, benzylamine substrate). The conditions noted are these: read-out: Inhibitory Activity (IC50, nM) human VAP-1. The essentials: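 Hydrogen peroxide from benzylamine (1 mM) oxidation by human recombinant VAP-1 detected via HRP-coupled Amplex Red (200 uM) fluorescence, kinetic over 1–2 h. Enzyme and compound preincubated 30 min at 37 °C, pH 7.4 phosphate; 8-point dose response, signal-rate decrease versus DMSO control fitted to four-parameter logistic for IC50.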

Assay [2] addresses T2, recombinant human MAO-A (monoamine oxidase-A) (Homo sapiens, UniProt P21397).
T2 construct: purchased Sigma-Aldrich
T2 sequence (P21397 1-527): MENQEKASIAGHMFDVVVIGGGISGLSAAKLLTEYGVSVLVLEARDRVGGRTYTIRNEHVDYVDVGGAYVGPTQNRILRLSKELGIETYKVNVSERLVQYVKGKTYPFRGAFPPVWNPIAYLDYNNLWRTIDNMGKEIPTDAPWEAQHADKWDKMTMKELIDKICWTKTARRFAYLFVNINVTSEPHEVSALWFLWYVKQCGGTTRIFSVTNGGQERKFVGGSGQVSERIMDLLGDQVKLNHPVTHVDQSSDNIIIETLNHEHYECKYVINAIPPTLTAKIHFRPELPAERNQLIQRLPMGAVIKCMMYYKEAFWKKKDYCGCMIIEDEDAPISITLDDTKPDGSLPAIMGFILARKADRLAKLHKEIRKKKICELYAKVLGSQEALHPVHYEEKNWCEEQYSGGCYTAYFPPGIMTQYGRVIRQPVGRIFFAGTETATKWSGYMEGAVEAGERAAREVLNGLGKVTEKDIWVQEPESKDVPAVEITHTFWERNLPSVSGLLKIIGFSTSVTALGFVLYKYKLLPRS
As to the kind of experiment: Activity evaluation on recombinant human MAO-A (Amplex Red/HRP-coupled assay, 0.5 mM tyramine substrate). The conditions noted are these: read-out: Inhibitory Activity (IC50, nM) MAO-A. An outline of the steps: (§1)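 Using an HRP-coupled Amplex Red readout (544/590 nm, kinetic over 1–2 h), IC50 values were fitted by 4-parameter logistic model to percent decrease in signal rate against DMSO control. Compounds (1:3 dilutions, 8 points, <1% DMSO) sat 30 min at 37 °C with enzyme in pH 7.4 phosphate buffer before substrate, 200 uM Amplex Red and HRP were added.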

Assay [3] deals with T3, recombinant human MAO-B (monoamine oxidase-B) (Homo sapiens, UniProt P27338).
T3 construct: purchased Sigma-Aldrich
T3 sequence (P27338 1-520): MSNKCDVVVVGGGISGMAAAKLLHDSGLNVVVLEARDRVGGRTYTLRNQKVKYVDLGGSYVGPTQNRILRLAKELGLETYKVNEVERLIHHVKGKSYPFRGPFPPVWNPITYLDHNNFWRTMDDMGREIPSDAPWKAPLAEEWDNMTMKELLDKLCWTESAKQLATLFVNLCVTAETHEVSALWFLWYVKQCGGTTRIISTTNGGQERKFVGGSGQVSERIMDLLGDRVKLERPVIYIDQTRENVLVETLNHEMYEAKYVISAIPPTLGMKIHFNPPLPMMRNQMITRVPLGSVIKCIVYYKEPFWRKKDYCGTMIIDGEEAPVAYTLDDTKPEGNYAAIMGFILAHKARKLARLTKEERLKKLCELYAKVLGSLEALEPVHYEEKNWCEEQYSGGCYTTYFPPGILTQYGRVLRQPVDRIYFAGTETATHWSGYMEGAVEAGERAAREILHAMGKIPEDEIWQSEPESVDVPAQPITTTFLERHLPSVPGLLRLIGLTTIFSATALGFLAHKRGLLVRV
Put plainly: Activity evaluation on recombinant human MAO-B (Amplex Red/HRP-coupled assay, 1 mM benzylamine substrate). The conditions noted are these: read-out: Inhibitory Activity (IC50, nM) MAO-B. The essentials:
as §1

Assay [4] has as its target T4, recombinant human DAO (diamine oxidase) (Homo sapiens, UniProt P19801).
T4 construct: purchased R&D systems
T4 sequence (P19801 20-751): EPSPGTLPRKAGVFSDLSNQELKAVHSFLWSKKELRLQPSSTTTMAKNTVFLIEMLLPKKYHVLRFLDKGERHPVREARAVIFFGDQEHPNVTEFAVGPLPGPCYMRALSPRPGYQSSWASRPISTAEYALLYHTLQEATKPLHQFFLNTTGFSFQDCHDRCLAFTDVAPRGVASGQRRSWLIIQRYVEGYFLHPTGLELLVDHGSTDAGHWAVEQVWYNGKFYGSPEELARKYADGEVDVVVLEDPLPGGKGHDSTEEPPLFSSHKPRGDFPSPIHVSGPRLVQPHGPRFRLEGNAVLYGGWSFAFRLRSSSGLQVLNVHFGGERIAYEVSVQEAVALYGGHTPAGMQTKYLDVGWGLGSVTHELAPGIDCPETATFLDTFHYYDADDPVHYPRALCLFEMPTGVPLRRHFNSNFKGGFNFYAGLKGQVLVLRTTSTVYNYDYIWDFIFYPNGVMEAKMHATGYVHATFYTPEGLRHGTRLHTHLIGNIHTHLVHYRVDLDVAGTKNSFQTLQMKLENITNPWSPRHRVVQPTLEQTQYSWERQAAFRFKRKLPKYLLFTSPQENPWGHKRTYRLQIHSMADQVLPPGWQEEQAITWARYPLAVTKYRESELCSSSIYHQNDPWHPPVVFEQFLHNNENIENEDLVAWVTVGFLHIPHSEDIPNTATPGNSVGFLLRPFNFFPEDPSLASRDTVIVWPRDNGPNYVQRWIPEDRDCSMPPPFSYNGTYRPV
As to the kind of experiment: Activity evaluation on recombinant human DAO (Amplex Red/HRP-coupled assay, 1 mM putrescine substrate). To be noted: read-out: Inhibitory Activity (IC50, nM) DAO. An outline of the steps:
as §1

[5] abbreviates: recombinant human VAP-1, 30 min preincubation at 37° C., 1 mM benzylamine.
The mark [6] stands for this setting: recombinant human VAP-1, benzylamine substrate.

Structures can show the parent of a compound that is named as a salt. Where two headings read alike, the source gives them in different places.

As to `NCC(Cn1ncn(-c2ccc(-c3ccc(C(F)(F)F)nc3)c(F)c2)c1=O)=C(F)F` [Example 26, 2-[2-(aminomethyl)-3,3-difluoro-allyl]-4-[3-fluoro-4-[6-(trifluoromethyl)-3-pyridyl]phenyl]-1,2,4-triazol-3-one Trifluoroacetate], the concentration for half-maximal inhibition (IC50) was 0.7 nM in assay [1] (setting [5]), greater than 100000 nM in assay [2] (0.5 mM tyramine), 180 nM in assay [3] (1 mM benzylamine) and 71 nM in assay [4] (1 mM putrescine).

With `NCC(Cn1ncn(Cc2ccc(-c3cccc(-c4nc[nH]n4)c3)s2)c1=O)=C(F)F` [Example 185, 2-[2-(aminomethyl)-3,3-difluoro-allyl]-4-[[5-[3-(1H-1,2,4-triazol-3-yl)phenyl]-2-thienyl]methyl]-1,2,4-triazol-3-one Trifluoroacetate], the IC50 is 1.3 nM in assay [1] (setting [6]), greater than 100000 nM in assay [2] (0.5 mM tyramine substrate), 28000 nM in assay [3] (1 mM benzylamine substrate) and greater than 100000 nM in assay [4] (1 mM putrescine substrate).

Turning to `NCC(Cn1ncn(Cc2ccc(C#Cc3cnc4c(c3)OCC(=O)N4)s2)c1=O)=C(F)F` [Example 170, 7-[2-[5-[[1-[2-(aminomethyl)-3,3-difluoro-allyl]-5-oxo-1,2,4-triazol-4-yl]methyl]-2-thienyl]ethynyl]-4H-pyrido[3,2-b][1,4]oxazin-3-one Trifluoroacetate], the concentration for half-maximal inhibition (IC50) in assay [1] (setting [5]) was 0.8 nM; in assay [2] (0.5 mM tyramine) it was greater than 100000 nM; in assay [3] (1 mM benzylamine), 14000 nM; in assay [4] (1 mM putrescine), greater than 10000 nM.

For `Cc1c(-c2cnn(C(C)C)c2)cccc1-n1cnn(CC(CN)=C(F)F)c1=O` [Example 262, 2-[2-(aminomethyl)-3,3-difluoro-allyl]-4-[3-(1-isopropylpyrazol-4-yl)-2-methyl-phenyl]-1,2,4-triazol-3-one Trifluoroacetate], the IC50 in assay [1] (setting [6]) is 7.4 nM; in assay [2] (0.5 mM tyramine substrate), greater than 100000 nM; in assay [3] (1 mM benzylamine substrate), greater than 100000 nM; in assay [4] (1 mM putrescine substrate) it was greater than 100000 nM.

Turning to `Cc1cc(-c2ccc(Cn3cnn(CC(CN)=C(F)F)c3=O)s2)cc2c1NC(=O)CC2` [Example 134, 6-[5-[[1-[2-(aminomethyl)-3,3-difluoro-allyl]-5-oxo-1,2,4-triazol-4-yl]methyl]-2-thienyl]-8-methyl-3,4-dihydro-1H-quinolin-2-one Trifluoroacetate], the IC50 in assay [1] (setting [5]) is 0.3 nM; in assay [2] (0.5 mM tyramine), greater than 100000 nM; in assay [3] (1 mM benzylamine), 22000 nM; in assay [4] (1 mM putrescine), greater than 100000 nM.

As for `NCC(Cn1ncn(-c2cc(Br)ccn2)c1=O)=C(F)F` [Example 9, 2-[2-(aminomethyl)-3,3-difluoro-allyl]-4-(4-bromo-2-pyridyl)-1,2,4-triazol-3-one Trifluoroacetate], the 50% inhibitory concentration (IC50) in assay [1] (setting [5]) was 3.5 nM; in assay [2] (0.5 mM tyramine), greater than 100000 nM; in assay [3] (1 mM benzylamine) it was greater than 100000 nM; in assay [4] (1 mM putrescine), 7100 nM.

Take `Cc1cc(C#Cc2ccc(N(C)C)nc2)cnc1-n1cnn(CC(CN)=C(F)F)c1=O` [Example 241, 2-[2-(aminomethyl)-3,3-difluoro-allyl]-4-[5-[2-[6-(dimethylamino)-3-pyridyl]ethynyl]-3-methyl-2-pyridyl]-1,2,4-triazol-3-one Trifluoroacetate]: the IC50 in assay [1] (setting [6]) was 1.3 nM; in assay [2] (0.5 mM tyramine substrate), greater than 100000 nM; in assay [3] (1 mM benzylamine substrate) it was 6300 nM; in assay [4] (1 mM putrescine substrate), 25000 nM.

With `Cc1cc(-c2ccc3c(c2)NC(=O)CO3)cnc1-n1cnn(CC(CN)=C(F)F)c1=O` [Example 221, 6-[6-[1-[2-(aminomethyl)-3,3-difluoro-allyl]-5-oxo-1,2,4-triazol-4-yl]-5-methyl-3-pyridyl]-4H-1,4-benzoxazin-3-one Trifluoroacetate], the half-inhibitory concentration (IC50) in assay [1] (setting [6]) came out at 0.3 nM; in assay [2] (0.5 mM tyramine substrate), 20000 nM; in assay [3] (1 mM benzylamine substrate) it was 9000 nM; in assay [4] (1 mM putrescine substrate) it was 2700 nM.

As to `Cc1cc(-c2ccc(N3CCNCC3)cc2)sc1Cn1cnn(CC(CN)=C(F)F)c1=O` [Example 155, 2-[2-(aminomethyl)-3,3-difluoro-allyl]-4-[[3-methyl-5-(4-piperazin-1-ylphenyl)-2-thienyl]methyl]-1,2,4-triazol-3-one Ditrifluoroacetate], the IC50 in assay [1] (setting [5]) is 56 nM; in assay [2] (0.5 mM tyramine), greater than 100000 nM; in assay [3] (1 mM benzylamine) it was greater than 100000 nM; in assay [4] (1 mM putrescine), 50000 nM.

As a reminder, the IC50 is the concentration that inhibits the measured activity by half.
